# Test results taken from patent publication US20240100023A1, “Compositions and Methods For Treating Spinal Cord Injuries” (priority 2020, published 2024).
# “Also recorded” adds a separate entry of the source.
# Experiments:
# Swiss Webster mice = experiment: PTZ proconvulsant test; format: in vivo, Mouse; details: 30 mg/kg or less p.o., 30 minutes before PTZ infusion
# Procedure: Follow on studies of CX717 and 1739 are continuing, employing additional well-known models for SCI drug efficacy, coupled with a variety of ongoing safety studies. Preliminary safety studies already completed have included a range of toxicity studies focusing on critical convulsant risks widely observed for previously-studied ampakines. Using the well-known PTZ Proconvulsant test, non-GLP safety studies were conducted to examine proconvulsant activity of CX717. Swiss Webster mice (n=12/group) were dosed with CX717 (3, 10 or 30 mg/kg p.o.), vehicle (0.5% methocel p.o.) or a positive control, CGS8216 (10 mg/kg in 70% PEG300: 30% water i.p.). Thirty minutes later, the GABA-A antagonist, pentylenetetrazol (PTZ) was infused in the tail vein until tonic seizures were observed. The time at which the first clonic and tonic seizure was observed was noted and used to determine the dose of PTZ necessary to induce both clonic and tonic seizure.
# [1] = test system: adult patients with Attention-Deficit Hyperactive Disorder (ADHD); experiment: Phase 2 randomized, double-blind, 2-period crossover study in adult ADHD; format: in vivo, human; details: for ADHD-RS hyperactivity subscale mean score: ITT
# Procedure: *This phase 2 study evaluated the efficacy, tolerability and safety of CX717 in the treatment of adult patients with Attention-Deficit Hyperactive Disorder (ADHD). The study was designed and executed as a randomized, double-blind, multi-center, 2-period crossover study comparing 2 doses of CX717 (200 mg, or 800 mg, BID) with placebo. Each treatment period lasted 3 weeks with a 2-week washout in between. Subjects met DSM-IV criteria for adult ADHD and had moderate to severe symptoms. The primary efficacy measure was the change from baseline on the ADHD Rating Scale (ADHD-RS) with adult ADHD prompts. A total of 68 male subjects, who were 19 to 50 years old and met criteria of Adult ADHD as defined by DSM IV, were randomized After accounting for early study dropouts, 51 subjects (75%) returned for efficacy assessments and completed both treatment periods (intent-to-treat population). […] Treatment with CX717 was well tolerated with no clinically significant changes in cardiovascular and other safety parameters with either dose. Sleep disturbances and headache were the most frequently reported adverse events.
# The present study further examined the clinical efficacy, tolerability and safety of CX717 as a drug treatment for adults with ADHD. Eligible subjects were randomized to 1 of 4 possible treatment sequences in which they received placebo (P) and either high dose (H) or low dose (L) of active treatment in random order (PL, PH, LP, and HP). Each treatment period was 3 weeks in duration with a 2-week washout in between. The study design was modeled after several similarly published ADHD studies with atomoxetine and stimulants, with sample sizes in the mid-20s. Since this is the first such study with CX7171 in ADHD, it is assumed that efficacy would be achieved using historical assumptions in effect size, therefore, a total of 60 subjects were to be randomized.
# All patients met DSM-IV criteria for adult ADHD, established by the Adult ADHD Clinical Diagnostic Scale (ACDS) Version 1.2. All patients gave written informed consent prior to enrollment and the conduct of the study was approved by either the […] Review Board (IRB) at each site or by the central IRB. Each subject had at least moderately severe ADHD symptoms (ADHD-RS score of ≥22; Clinician's Global Impression of Severity [CGI-S] score of ≥4). Each subject was male, and between 18-50 years old, inclusively. Male patients were selected because the necessary reproductive toxicology studies that would have allowed women of childbearing potential to be included in the study had not been completed.
# Subjects were excluded if they were taking medication specifically for treatment of ADHD symptoms (e.g., stimulants, atomoxetine, tricyclic antidepressants, or bupropion). ADHD treatments were discontinued (stimulants for 2 weeks and non-stimulant for 4 weeks) prior to the Period 1 baseline visit. Subjects were also excluded if they were taking antidepressants, anticonvulsants, or antipsychotics.
# CX717 capsules were administered orally as 200 mg BID or 800 mg BID doses. Matching placebo capsules were identical in appearance to the capsules containing active drug, and were administered orally. The study was divided into a series of periods: screening period—up to 4 weeks, treatment period 1-3 weeks; wash-out period—2 weeks; treatment period 2-3 weeks; follow-up period—approximately 1 week.
# ADHD recovery drug efficacy was assessed using the Adult ADHD Rating Scale (DuPaul, 1998) with prompts ([…]) (Adler & Cohen, 2004). The primary efficacy outcome measure was the comparison of each dose of CX717 versus placebo on the change from baseline in ADHD symptoms as measured by the ADHD-RS at Week 3. Secondary efficacy parameters included comparisons of each dose of CX717 versus placebo for the ADHD-RS Inattentiveness Subscale Score of the ADHD-RS.
# Safety was evaluated by adverse events (AEs), clinical laboratory tests, vital signs, physical examination, and electrocardiograms (ECGs). […]
# Rat (Lister) = experiment: 5 Choice serial reaction time task; format: in vivo; details: IP
# Source text: Another useful animal model for evaluating ampakine activity is the Five Choice Serial Reaction Time Task in Rats. This assay requires rats to provide a single nose poke in response to a light stimulus presented in one of five locations within a 9-hole chamber. With a correct response a reward is delivered that the rat collects from the food magazine at the rear of the chamber. The withdrawal of its head from the food magazine initiates a short inter-trial interval followed by the presentation of the next randomly presented stimulus. An incorrect response results in a time out period (non-reinforcement) followed by the initiation of a new trial. Groups of 12 rats were used in this study, and all rats received all treatments using a randomized sequence. For evaluation using this model, CX1739 was selected as the exemplary low impact ampakine, administered at doses of 3 and 10 mg/kg i.p. 20 min prior to the start of the study.
# [2] = high dose (800 mg BID), after 3 weeks
SMILES,Dose of PTZ required to elicit a seizure (proconvulsant activity) (Swiss Webster mice),"ADHD-RS outcome measures, low dose versus placebo ([1]; 200 mg BID)","ADHD-RS total and subscales, high dose versus placebo, repeated measures analysis ([1]; 800 mg BID, at endpoint)","ADHD-RS hyperactivity subscale mean score ([1]; active dose (both doses), last value)","Difference from placebo in mean change of ADHD-RS total score [1, 2]","Mean change from baseline of ADHD-RS total score [1, 2]","ADHD-RS hyperactivity subscale mean score ([1]; high dose, Week 1)","ADHD-RS hyperactivity subscale mean score ([1]; high dose, Week 3)","ADHD-RS hyperactivity subscale mean score ([1]; high dose, last value)","Minimum Effective Dose, 5 choice serial reaction time task (Rat (Lister)) [mg/kg]"
"O=C(c1ccc2nonc2c1)N1CCOCC1 [CX717, 1-(benzofurazan-5-ylcarbonyl)morpholine]",did not decrease the dose of PTZ required to elicit a seizure,no statistically significant differences; also recorded: did not differ from placebo,superior efficacy compared to placebo,−4.10,−4.73,−9.95,−4.22,−5.68,−5.57,
"CN(C(=O)c1ccc2nonc2c1)C1CCOCC1 [CX1739, N-Methyl-N-tetrahydro-2H-pyran-4-yl-[2,1,3]-benzoxadiazole-5-carboxamide]",,,,,,,,,,3
